Earlier results as cited in article PMC3711574 (Biochemistry, 2012).

System: BHRF-1
Settings: ref [67]

MRPEIWIAQELRRIGDEFNAYYARRV [Bim]
Binding to BHRF-1: binds
